Literature values as cited in patent publication US7314641B1, “High-bioavailability particle coated with fungicide and polymer” (Everest Pharm. Industrial Co., Ltd., priority 2007, dated 2008).

Experiments:
[1] = prior art statement on the compound of U.S. Pat. No. 4,267,179

water solubility [1]: not water soluble | Metabolic period in human beings: 96 h
Compound: CCC(C)n1ncn(-c2ccc(N3CCN(c4ccc(OCC5COC(Cn6cncn6)(c6ccc(Cl)cc6Cl)O5)cc4)CC3)cc2)c1=O (single isomer, unassigned; (+)) [itraconazole, (+)-cis-4-[4-[4-[-4[[2-(2,4-dichlorophenyl)-2-(1H-1,2,4-triazol-1-ylmethyl)-1,3-dioxolan-4-yl]methoxy]phenyl]-1-piperazinyl]phenyl-2,4-dihydro-2-1(1-methylpropyl)-3H-1,2,4-triazol-3-one]
